Measured values reported in patent US20240239788A1, “SMALL MOLECULE INHIBITORS OF KRAS G12D MUTANT” (Merck Sharp & Dohme LLC, priority 2021, published 2024).
Where a name gives a salt, the structure may show the parent alone.

Each compound was assayed against KRAS protein containing G12D mutation (Homo sapiens (Human), UniProt P01116, G12D) (assay: SOS-catalyzed nucleotide exchange assay (GNE), TR-FRET). Conditions: biotinylated KRAS G12D, SOS and GTP, 60-minute incubation.
Format: biochemical
Method: Compounds are added to this complex and then after a 60-minute incubation time the mixture is treated with SOS and unlabeled GTP. Small molecule inhibitors stabilize the Bodipy-GDP complex whereas the untreated protein rapidly exchanges Bodipy-GDP for unlabeled GTP resulting in reduced TR-FRET signal.
This solution is referred to as biotinylated KRAS G12D stock solution.

Sequence of KRAS protein containing G12D mutation (P01116 other isoform, or with tags, fused parts or gaps G12D (already in the parent)): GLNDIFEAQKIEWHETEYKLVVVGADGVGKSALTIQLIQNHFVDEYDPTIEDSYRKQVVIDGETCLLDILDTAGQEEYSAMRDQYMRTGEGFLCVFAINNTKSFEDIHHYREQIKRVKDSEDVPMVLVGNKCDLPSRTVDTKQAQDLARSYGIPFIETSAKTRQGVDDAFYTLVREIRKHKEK

| IC50 | SMILES |
| --- | --- |
| 727 nM | Cc1cccc2cc(O)cc(-c3c(F)cc4c(N5CC6CC[C@@](C)(C5)N6)nc(OC[C@@]56CCCN5C[C@H](F)C6)nc4c3F)c12 (single isomer, unassigned) [Ex. 179b] |
| 4720 nM | C[C@]12CCC(CN(c3nc(OC[C@@]45CCCN4C[C@H](F)C5)nc4c(F)c(-c5cc(Cl)cc6cccc(Cl)c56)c(F)cc34)C1)N2 (single isomer, unassigned) [Ex. 184] |
| 1110 nM | C[C@]12CCC(CN(c3nc(OC[C@]4(CNCC(F)F)CC4(F)F)nc4c(F)c(-c5cc(O)cc6cccc(Cl)c56)c(F)cc34)C1)N2 (single isomer, unassigned) [Ex. 221] |
| 113 nM | Cc1cc(N)nc(-c2c(Cl)cc3c(N4CC5CCC(C4)N5)nc(OC[C@@]45CCCN4C[C@H](F)C5)nc3c2F)c1CC(F)(F)F (single isomer, unassigned) [Ex. 157a] |
| 1.21 nM | C#Cc1cccc2cc(O)cc(-c3c(F)cc4c(N5CC6(C)CCC(C)(C5)N6)nc(OC[C@@]56CCCN5C[C@H](F)C6)nc4c3F)c12 [Example 124, 4-(4-(1,5-dimethyl-3,8-diazabicyclo[3.2.1]octan-3-yl)-6,8-difluoro-2-(((2R,7aS)-2-fluorotetrahydro-1H-pyrrolizin-7a(5H)-yl)methoxy)quinazolin-7-yl)-5-ethynylnaphthalen-2-ol] |
| 1000 nM | C[C@@]12CC[C@H](CN(c3nc(OC[C@@]45CCCN4C[C@H](F)C5)nc4c(F)c(-c5cc(O)c(Cl)c6cccc(Cl)c56)c(F)cc34)C1)N2 (single isomer, unassigned) [Ex. 174b] |
| 4190 nM | C[C@]12CC[C@H](CN(c3nc(OC[C@@]45CCCN4C[C@H](F)C5)nc4c(F)c(-c5cccn6cccc56)c(F)cc34)C1)N2 [Ex. 130, 6,8-difluoro-2-(((2R,7aS)-2-fluorotetrahydro-1H-pyrrolizin-7a(5H)-yl)methoxy)-7-(indolizin-8-yl)-4-((1S,5R)-1-methyl-3,8-diazabicyclo[3.2.1]octan-3-yl)quinazoline, 2TFA] |
| 1790 nM | Cc1nc(N)c(C)c(-c2c(F)cc3c(N4C[C@H]5CC[C@@H](C4)N5)nc(OC[C@@]45CCCN4C[C@H](F)C5)nc3c2F)c1C1CC1 [Ex. 198, 4-(4-((1R,5S)-3,8-diazabicyclo[3.2.1]-octan-3-yl)-6,8-difluoro-2-(((2R,7aS)-2-fluorotetrahydro-1H-pyrrolizin-7a(5H)-yl)-methoxy)quinazolin-7-yl)-5-cyclopropyl-3,6-dimethylpyridin-2-amine] |
| 2.04 nM | Cc1cc(N)nc(-c2c(Cl)cc3c(N4CC5CCC(C4)N5)nc(OC[C@@]45CCCN4[C@H](CO)CC5)nc3c2F)c1C(F)(F)F [Ex. 150] |
| 1440 nM | C[C@]12CC[C@H](CN(c3nc(OC[C@H]4CCN(C5CCCCC5O)C4)nc4c(F)c(-c5cc(O)cc6ccccc56)c(Cl)cc34)C1)N2 (stereo partly drawn) [Example 120, 4-(6-chloro-8-fluoro-2-(((3S)-1-(2-hydroxy-cyclohexyl)pyrrolidin-3-yl)methoxy)-4-((1S,5R)-1-methyl-3,8-diazabicyclo [3.2.1]octan-3-yl)quinazolin-7-yl)naphthalen-2-ol, TFA] |
| 1310 nM | Cc1cc(-c2c(Cl)cc3c(N4C[C@H]5CC[C@@H](C4)N5)nc(OC[C@@]45CCCN4C[C@H](F)C5)nc3c2F)nc(N)c1OC(F)F [Ex. 168, 6-(4-((1R,5S)-3,8-diazabicyclo[3.2.1]-octan-3-yl)-6-chloro-8-fluoro-2-(((2R,7aS)-2-fluorotetrahydro-1H-pyrrolizin-7a(5H)-yl)-methoxy)quinazolin-7-yl)-3-(difluorometh-oxy)-4-methylpyridin-2-amine] |
| 165 nM | C#Cc1c(F)ccc2ccc(F)c(-c3c(F)cc4c(N5CC6CC[C@@](C)(C5)N6)nc(OC[C@@]56CCCN5C[C@H](F)C6)nc4c3F)c12 (single isomer, unassigned) [246b] |
| 361 nM | Cc1nc(N)cc(-c2c(Cl)cc3c(N4C[C@H]5CC[C@@](C)(C4)N5)nc(OCC4(CN5CCOCC5)CC4)nc3c2F)c1C(F)(F)F [Ex. 138, 4-(6-chloro-8-fluoro-4-((1S,5R)-1-methyl-3,8-diazabicyclo[3.2.1]octan-3-yl)-2-((1-(morpholinomethyl)cyclopropyl)methoxy)quinazolin-7-yl)-6-methyl-5-(trifluorometh-yl)pyridin-2-amine] |
| 55.1 nM | CN(CC(C)(C)O)CC1(COc2nc(N3C[C@H]4CC[C@@](C)(C3)N4)c3cc(F)c(-c4cc(O)cc5ccccc45)c(F)c3n2)CC1 [Ex. 226, 4-(6,8-difluoro-2-((1-(((2-hydroxy-2-methylpropyl)(methyl)amino)methyl)cyclopropyl)methoxy)-4-((1S,5R)-1-methyl-3,8-diazabicyclo[3.2.1]octan-3-yl)quinazolin-7-yl)naphthalen-2-ol] |
| 2940 nM | Cc1cc(N)nc(-c2c(Cl)cc3c(N4CC5CCC(C4)N5)nc(OC[C@@]45CCCN4C[C@H](F)C5)nc3c2F)c1CC(F)(F)F (single isomer, unassigned) [Ex. 157b] |
| 2730 nM | NC1(COc2nc(N3CC4CCC(C3)N4)c3cc(Cl)c(-c4cc(O)cc5ccccc45)c(F)c3n2)CCCC1 [Example 112, 4-(2-((1-aminocyclo-pentyl)methoxy)-4-(3,8-diazabicyclo[3.2.1]octan-3-yl)-6-chloro-8-fluoroquinazolin-7-yl)naphthalen-2-ol, TFA] |
| 794 nM | C[C@]12CC[C@H](CN(c3nc(OCC4(N)CCC4)nc4c(F)c(-c5cc(O)cc6ccccc56)c(F)cc34)C1)N2 [Example 114, 4-(2-((1-aminocyclobutyl)methoxy)-6,8-difluoro-4-((1S,5R)-1-methyl-3,8-diazabicyclo[3.2.1]octan-3-yl)quinazolin-7-yl)naphthalen-2-ol, TFA] |
| 554 nM | Cc1nc(N)c(C#N)c(-c2c(F)cc3c(N4CC5CCC(C4)N5)nc(OC[C@@]45CCCN4C[C@H](F)C5)nc3c2F)c1C(F)(F)F (single isomer, unassigned) [Ex. 156b] |
| 135 nM | C#Cc1cccc2cc(O)cc(-c3c(F)cc4c(N5C[C@]6(C)CC[C@](F)(C5)N6)nc(OC[C@@]56CCCN5C[C@H](F)C6)nc4c3F)c12 [compound 240, 4-(6,8-difluoro-4-((18,5S)-1-fluoro-5-methyl-3,8-diazabicyclo[3.2.1]octan-3-yl)-2-(((2R,7aS)-2-fluorotetrahydro-1H-pyrrolizin-7a(5H)-yl)methoxy)quinazolin-7-yl)-5-ethynylnaphthalen-2-ol] |
| 3130 nM | C[C@@]12CC[C@H](CN(c3nc(OC[C@@]45CCCN4C[C@H](F)C5)nc4c(F)c(-c5cc(O)c(Cl)c6cccc(Cl)c56)c(F)cc34)C1)N2 (single isomer, unassigned) [Ex. 174a] |

Further lines, the compound ahead of its results:

| SMILES | IC50 |
| --- | --- |
| C#Cc1cccc2cccc(-c3c(F)cc4c(N5CC6CC[C@@](C)(C5)N6)nc(OC[C@@]56CCCN5C[C@H](F)C6)nc4c3F)c12 (single isomer, unassigned) [Ex. 211a] | 2080 nM |
| Cc1nc(N)cc(-c2c(F)cc3c(N4C[C@H]5CC[C@@](C)(C4)N5)nc(OCC4(CN5CCOCC5)CC4)nc3c2F)c1C(F)(F)F (single isomer, unassigned) [Ex. 139a] | 1670 nM |
| Cc1nc(N)cc(-c2c(F)cc3c(N4C[C@H]5CC[C@@](C)(C4)N5)nc(OCC4(CN5CCOCC5)CC4)nc3c2F)c1C(F)(F)F (single isomer, unassigned) [Ex. 139b] | 287 nM |
| CN(C)C[C@@]1(COc2nc(N3C[C@H]4CC[C@@H](C3)N4)c3cc(F)c(-c4c(C(F)(F)F)c(Cl)cc5cnn(C)c45)c(F)c3n2)CC1(F)F (single isomer, unassigned) [201a] | 11100 nM |
| C[C@]12CCC(CN(c3nc(OC[C@@]45CCCN4C[C@H](F)C5)nc4c(F)c(-c5cc(O)cc6cccc(C(F)F)c56)c(F)cc34)C1)N2 (single isomer, unassigned) [Ex. 181b] | 141 nM |
| Cc1cc(N)c(F)c(-c2c(F)cc3c(N4CC5CCC(C4)N5)nc(OC[C@@]45CCCN4C[C@H](F)C5)nc3c2F)c1C(F)(F)F (single isomer, unassigned) [Ex. 146b] | 25.2 nM |
| C[C@]12CCC(CN(c3nc(OC[C@@H]4CC[C@H]5CC(F)(F)CCN45)nc4c(F)c(-c5cc(O)cc6cccc(Cl)c56)c(F)cc34)C1)N2 (single isomer, unassigned) [Ex. 175b] | 11100 nM |
| Nc1cc2cccc(Cl)c2c(-c2c(F)cc3c(N4CC5CCC(C4)N5)nc(OC[C@@]45CCCN4C[C@H](F)C5)nc3c2F)n1 (single isomer, unassigned) [Ex. 189b] | 11100 nM |
| Cc1cc2cn(C)nc2c(-c2c(F)cc3c(N4C[C@H]5CC[C@@H](C4)N5)nc(OC[C@@]45CCCN4C[C@H](F)C5)nc3c2F)c1C(F)(F)F [251b, 4-((1R,5)-3,8-diazabicyclo[3.2.1]octan-3-yl)-7-(2,5-dimethyl-6-(trifluoromethyl)-2H-indazol-7-yl)-68-difluoro-2-(((2R,7aS)-2-fluorotetrahydro-1H-pyrrolizin-7a(5H)-yl)methoxy)quinazoline] | 935 nM |
| CC(O)(COc1nc(N2CC3CC[C@@](C)(C2)N3)c2cc(F)c(-c3cc(O)cc4cccc(Cl)c34)c(F)c2n1)CN1CC[C@@H](F)C1 (single isomer, unassigned) [Ex. 210] | 2150 nM |
| C[C@]12CC[C@H](CN(c3nc(OCC45CCCN4CCC(F)(F)C5)nc4c(F)c(-c5cc(O)cc6cccc(Cl)c56)c(F)cc34)C1)N2 (single isomer, unassigned) [Example 116a] | 2890 nM |
| C#Cc1cccc2cc(O)cc(-c3c(F)cc4c(N5C[C@H]6CC[C@@](C)(C5)N6)nc(OC)nc4c3F)c12 (single isomer, unassigned) [Ex. 171b, TFA] | 3470 nM |
| Nc1cc(-c2c(Cl)cc3c(N4CC5CCC(C4)N5)nc(OC[C@@]45CCCN4C[C@H](F)C5)nc3c2F)c(C(F)(F)F)c(Cl)n1 (single isomer, unassigned) [Ex. 155a] | 330 nM |
| CNc1cc(C)c(C(F)(F)F)c(-c2c(F)cc3c(N4CC5CCC(C4)N5)nc(OCC4(CN5CCOCC5)CC4)nc3c2F)n1 (single isomer, unassigned) [Ex. 137a] | 1610 nM |
